The text below walks through data of ChEMBL document CHEMBL1123908, “Endoperoxides as potential antimalarial agents” (J Med Chem, 1987).

SMILES strings stand for the structures.

The subject of the first assay is Mus musculus. In words: Blood schizonticidal activity against Plasmodium berghei in mice (Mus musculus) at the dose of 640 mg/kg; Inactive. Format: functional, organism-based. Also on record: dose 640 mg/kg.
With `CC(=O)OC(C)CCC12OO[C@@H](C=C1C)CC2(C)C` (some centres not stated), the “Activity (active/inactive)” value is on record as “Not Active”.

Consider `CC12CCC(OC(=O)c3ccccc3)C(C)(C)C13CCC(C2)OO3` (configuration not stated), for which the “Activity (active/inactive)” value is “Not Active”.

As to `CC(=O)OC1CCC2(C)CC3CCC2(OO3)C1(C)C` (configuration not stated), the “Activity (active/inactive)” value is given as “Not Active”.

Consider `CC12CCC(O)C(C)(C)C13CCC(C2)OO3` (configuration not stated), for which the “Activity (active/inactive)” value is recorded as “Not Active”.

For `CC12CCC(O)C(C)(C)[C@@]13C=CC(C2)OO3` (some centres not stated), the “Activity (active/inactive)” value is recorded as “Not Active”.

On to `CC(=O)OC1CCC2(C)CC3C=C[C@]2(OO3)C1(C)C` (some centres not stated), for which the “Activity (active/inactive)” value is reported as “Not Active”.

As to `CCCCOC(=O)OC1CCC2(C)CC3CCC2(OO3)C1(C)C` (configuration not stated), the “Activity (active/inactive)” value is “Not Active”.

Regarding `CC(C)CCCC(C)[C@H]1CC[C@H]2C3CC=C4C[C@@H](OC(=O)OC5CCC6(C)CC7C=CC6(OO7)C5(C)C)CCC4(C)[C@H]3CCC12C` (some centres not stated), the “Activity (active/inactive)” value is recorded as “Not Active”.

Consider `CC12CCC(OC(=O)c3ccccc3)C(C)(C)[C@@]13C=CC(C2)OO3` (some centres not stated), for which the “Activity (active/inactive)” value is “Not Active”.

The next assay relates to Mus musculus. Put plainly: Blood schizonticidal activity against Plasmodium berghei in mice (Mus musculus) at the dose of 40 mg/kg; Inactive. In kind it is functional, organism-based. The arrangement: dose 40 mg/kg.
As for `CC(=O)OC(C)CCC12OO[C@@H](C=C1C)CC2(C)C` (some centres not stated), the Blood schizonticidal activity result was “Not Active”.

As to `CC12CCC(OC(=O)c3ccccc3)C(C)(C)C13CCC(C2)OO3` (configuration not stated), the Blood schizonticidal activity result is “Not Active”.

Take `CC(=O)OC1CCC2(C)CC3CCC2(OO3)C1(C)C` (configuration not stated): the Blood schizonticidal activity entry is reported as “Not Active”.

For the molecule `CC12CCC(O)C(C)(C)C13CCC(C2)OO3` (configuration not stated), the Blood schizonticidal activity result is on record as “Not Active”.

For `CC12CCC(O)C(C)(C)[C@@]13C=CC(C2)OO3` (some centres not stated), the Blood schizonticidal activity entry is listed as “Not Active”.

For the molecule `CC(=O)OC1CCC2(C)CC3C=C[C@]2(OO3)C1(C)C` (some centres not stated), the Blood schizonticidal activity entry is “Not Active”.

Take `CCCCOC(=O)OC1CCC2(C)CC3CCC2(OO3)C1(C)C` (configuration not stated): the Blood schizonticidal activity result is recorded as “Not Active”.

Turning to `CC(C)CCCC(C)[C@H]1CC[C@H]2C3CC=C4C[C@@H](OC(=O)OC5CCC6(C)CC7C=CC6(OO7)C5(C)C)CCC4(C)[C@H]3CCC12C` (some centres not stated), the Blood schizonticidal activity entry is “Not Active”.

With `CC12CCC(OC(=O)c3ccccc3)C(C)(C)[C@@]13C=CC(C2)OO3` (some centres not stated), the Blood schizonticidal activity result is reported as “Not Active”.

The next assay has as its system Mus musculus. Put plainly: Blood schizonticidal activity against Plasmodium berghei in mice (Mus musculus) at the dose of 160 mg/kg; Inactive. In kind it is functional, organism-based. Also on record: dose 160 mg/kg.
In the case of `CC(=O)OC(C)CCC12OO[C@@H](C=C1C)CC2(C)C` (some centres not stated), the Activity call is “Not Active”.

Take `CC12CCC(OC(=O)c3ccccc3)C(C)(C)C13CCC(C2)OO3` (configuration not stated): the Activity call is recorded as “Not Active”.

Turning to `CC(=O)OC1CCC2(C)CC3CCC2(OO3)C1(C)C` (configuration not stated), the Activity call is “Not Active”.

On to `CC12CCC(O)C(C)(C)C13CCC(C2)OO3` (configuration not stated), for which the Activity call was “Not Active”.

As for `CC12CCC(O)C(C)(C)[C@@]13C=CC(C2)OO3` (some centres not stated), the Activity call is listed as “Not Active”.

`CC(=O)OC1CCC2(C)CC3C=C[C@]2(OO3)C1(C)C` (some centres not stated): the Activity call is “Not Active”.

Consider `CCCCOC(=O)OC1CCC2(C)CC3CCC2(OO3)C1(C)C` (configuration not stated), for which the Activity call was “Not Active”.

With `CC(C)CCCC(C)[C@H]1CC[C@H]2C3CC=C4C[C@@H](OC(=O)OC5CCC6(C)CC7C=CC6(OO7)C5(C)C)CCC4(C)[C@H]3CCC12C` (some centres not stated), the Activity call was “Not Active”.

In the case of `CC12CCC(OC(=O)c3ccccc3)C(C)(C)[C@@]13C=CC(C2)OO3` (some centres not stated), the Activity call is on record as “Not Active”.
